Counter-ions that a name gives are not always drawn.
System: A549 human lung epithelium cell line
Test: RANTES production in response to TNF-α from A549 cells
Format: cell-based
Conditions: Homo sapiens, A549, A549 cells, 100 ng/ml TNF-α, read-out: Cellular activity grade (A549) (Cellular IC50)
Experimental: [The Measurement of RANTES Production in Response to TNF-α from A549 Cells]
(1) Preparation of A549 Cells
• The A549 human lung epithelium cell line (ATCC […]) was maintained in Dulbecco's modified Eagle's medium (D-MEM, Nikken Biomedical Institute) supplemented with 10% FCS (Gibco), 100 U/ml penicillin, 100 μg/ml streptomycin, and 2 mM glutamine (culture medium). Forty thousand (4×10^4) cells (80 μl/well) were seeded in each well of 96 well flat-bottom tissue culture plate (Falcon #3072). The plate was allowed to stand for 2 hrs, thus the cells were adhered to the bottom of each well. To the each well was added 10 μl vehicle (1% DMSO), serial dilutions of test compounds in 1% DMSO, or 5 nM Dexamethasone in 1% DMSO as a reference. The mixture (90 μl/well) was incubated for 1 hr at 37° C. After 1 hr, 1 μg/ml TNF-α (10 μl) in culture medium was added to the mixture to obtain 100 μl of reaction mixture. The reaction mixture was cultured for 24 hrs to stimulate the cells with 100 ng/ml TNF-α. Cells with vehicle without TNF-α stimulation were also prepared. (2) Measurement of RANTES Production • Then the concentration of RANTES released from the cells in the supernatants of each well was determined using a quantitative sandwich enzyme immunoassay technique. First, 2 μg/ml mouse anti-huRANTES mAb (R&D Systems, #mAb678) in PBS buffer (pH 7.4, 100 μl) was put in each well of 96-well NUNC fluoro plate (Nalge Nunc, New York USA) (Final 200 ng/well) and the plate was allowed to stand for overnight at 4° C. to be coated by the antibody. Each well of the plate was then washed with 350 μl wash buffer (0.05% Tween-20, 0.85% NaCl, and 25 mM Tris/HCl pH7.4) for three times. Blocking buffer containing 1% BSA (Sigma 99% pure, 100 g), 5% sucrose (Nacalai tesque, 99% pure, 500 g), and 0.02% azide (Nacalai tesque, 100%, 500 g) were added (200 μl) to each well and then the plate was allowed to stand for 4 hours to stabilize the coated antibody. Next, 50 μl supernatants of cell culture prepared in (1) above were put in each well of the 96-well NUNC fluoro plate with coated antibody. Recombinant Human RANTES (Pepro Tech, Inc. #300-06) was used as the standard for the determination of RANTES production (linear range between 1 and 10 ng/ml). Eu-labelled mouse anti-huRANES mAb (60 ng/ml: R&D Systems, #mAb278) in PBS supplemented by 1% BSA and 0.05% Tween 20 was added (50 μl) to each well. The reaction mixtures were incubated at room temperature for 4 hrs. After washing with wash buffer (0.05% Tween-20, 0.85% NaCl, and 25 mM Tris/HCl pH7.4, 350 μl/well) for 5 times with the use of a Sera Washer (Bio-Tech, #MW-96R), the enhancement solution (DELFIA, #1244-405, 100 μl/well) was added to each well. The plate was incubated for 10 minutes at room temperature with moderate shaking. Fluorescent intensity was measured using a DELFIA fluorimeter (Wallac). Excitation was performed at 340 nm and emission was measured at 615 nm. [The Measurement of TNF-α Production in Response to LPS from Peripheral Blood Mononuclear Cells (PBMC)] (1) Preparation of PBMC • Human PBMC were prepared by first obtaining blood from healthy donors and isolating the cells from the blood. The isolation was done by Ficoll gradient-centrifugation method using Ficoll Pacque (Pharmacia #17-1440-02). Within three hours from donation, the isolated PBMC was used. After three times washing with PBS, PBMC were resuspended with RPMI 1640 (Nikken BioMedical Institute) supplemented with 10% FCS (Gibco), 100 U/ml penicillin, 100 μg/ml streptomycin, and 2 mM glutamine (culture medium). The cells (1×10^5 in 150 μL/well) were seeded in each well of 96 well flat-bottom tissue culture plate (Falcon #3072). To the each well was added 20 μl vehicle (1% DMSO), serial dilutions of test compounds in 1% DMSO, or 250 nM Dexamethasone in 1% DMSO as a reference. The mixture (170 μl/well) was incubated for 1 hr at 37° C. After 1 hr, 20 ng/ml LPS (30 μl) in culture medium was added to the mixture to obtain 200 μl of reaction mixture. […]

First: CNC(=O)c1c(C2CCCNC2)cc(-c2ccccc2O)nc1N (centres unmarked) [Example 8-2, 2-amino-6-(2-hydroxyphenyl)-N-methyl-4-(3-piperidinyl)nicotinamide hydrochloride]
Second: CC(=O)c1c(C2CCCNC2)cc(-c2ccccc2O)nc1N (centres unmarked) [Example 15-3, 1-[2-amino-6-(2-hydroxyphenyl)4-(3-piperidinyl)-3-pyridinyl]ethanone hydrochloride]
The IC50 of the first is higher: 1000 to 10000 nM for the first, less than 1000 nM for the second. The second is the more potent here.

Compared with CNC(=O)c1c(C2CCCNC2)cc(-c2c(O)cccc2OCC2CC2)nc1N (centres unmarked) [Example 8-3, 2-amino-6-[2-(cyclopropylmethoxy)-6-hydroxyphenyl]-N-methyl-4-(3-piperidinyl)nicotinamide hydrochloride], Nc1nc(-c2c(O)cccc2OCC2CC2)cc(C2CCCNC2)c1C(=O)O (centres unmarked) [Example 9-3, 2-amino-6-[2-(cyclopropylmethoxy)-6-hydroxyphenyl]-4-(3-piperidinyl)nicotinic acid hydrochloride] is higher in IC50: less than 1000 nM for the first, greater than 10000 nM for the second. The first is the more potent here.

CC(C)(C)OC(=O)c1c(C2CCCNC2)cc(-c2ccccc2O)nc1N (centres unmarked) [Example 9-1, tert-butyl 2-amino-6-(2-hydroxyphenyl)-4-(3-piperidinyl)nicotinate hydrochloride] and Nc1nc(-c2ccccc2O)cc(C2CCCNC2)c1C(=O)O (centres unmarked) [Example 9-2, 2-amino-6-(2-hydroxyphenyl)-4-(3-piperidinyl)nicotinic acid hydrochloride] fall in the same range of IC50: 1000 to 10000 nM for the first, 1000 to 10000 nM for the second.

Cn1c(=O)[nH]c2nc(-c3ccccc3O)cc(C3CCCNC3)c2c1=O (centres unmarked) [Example 10-1, 7-(2-hydroxy-phenyl)-3-methyl-5-piperidin-3-yl-1H-pyrido[2,3-d]pyrimidine-2,4-dione hydrochloride] and Oc1ccccc1-c1cc(C2CCCNC2)c2cn[nH]c2n1 (centres unmarked) [Example 16-1, 2-(4-Piperidin-3-yl-1H-pyrazolo[3,4-b]pyridin-6-yl)-phenol hydrochloride] fall in the same range of IC50: 1000 to 10000 nM for the first, 1000 to 10000 nM for the second.

Nc1nc(-c2ccccc2O)cc(C2CCCNC2)c1CO (centres unmarked) [Example 11-1, 2-[6-amino-5-(hydroxymethyl)-4-(3-piperidinyl)-2-pyridinyl]phenol hydrochloride] and COCc1c(C2CCCNC2)cc(-c2ccccc2O)nc1N (centres unmarked) [Example 13-1, 2-[6-amino-5-(methoxymethyl)-4-(3-piperidinyl)-2-pyridinyl]phenol hydrochloride] cannot be ordered by IC50: less than 1000 nM for the first, less than 1000 nM for the second.

Nc1nc(-c2c(O)cccc2F)cc(C2CCCNC2)c1CO (centres unmarked) [Example 11-2, 2-[6-amino-5-(hydroxymethyl)-4-(3-piperidinyl)-2-pyridinyl]-3-fluorophenol hydrochloride] and Nc1nc(-c2c(O)cccc2OCC2CC2)cc(C2CCCNC2)c1CO (centres unmarked) [Example 12-1, 2-[6-amino-5-(hydroxymethyl)-4-(3-piperidinyl)-2-pyridinyl]-3-(cyclopropylmethoxy)phenol hydrochloride] cannot be ordered by IC50: less than 1000 nM for the first, less than 1000 nM for the second.

Nc1nc(-c2ncccc2O)cc(C2CCCNC2)c1CO (centres unmarked) [Example 11-3, 6′-amino-5′-(hydroxymethyl)-4′-3-piperidinyl)-2,2′-bipyridin-3-ol hydrochloride] and Cc1c(C2CCCNC2)cc(-c2ccccc2O)nc1N (centres unmarked) [Example 14-1, 2-[6-amino-5-methyl-4-(3-piperidinyl)-2-pyridinyl]phenol hydrochloride] cannot be ordered by IC50: less than 1000 nM for the first, less than 1000 nM for the second.

First: Nc1nc(-c2ccccc2O)cc(C2=CCCNC2)c1CO [Example 11-4, 2-[6′-amino-5′-(hydroxymethyl)-1,2,5,6-tetrahydro-3,4′-bipyridin-2′-yl]phenol hydrochloride]
Second: CC(O)c1c(C2CCCNC2)cc(-c2ccccc2O)nc1N (centres unmarked) [Example 15-1, 2-[6-amino-5-(1-hydroxyethyl)-4-(3-piperidinyl)-2-pyridinyl]phenol hydrochloride]
The IC50 of the first is lower: less than 1000 nM for the first, 1000 to 10000 nM for the second.

Compound Nc1nc(-c2ccccc2O)cc(C2CCCNC2)c1C(O)c1ccccc1 (centres unmarked) [Example 15-2, 2-[6-amino-5-[hydroxy(phenyl)methyl]-4-(3-piperidinyl)-2-pyridinyl]phenol hydrochloride] has an IC50 of 1000 to 10000 nM.
